Values after ≈ are worked out from the molar mass of the structure shown. Numbered stars: 1 amine (or outer) side, 2 acyl side, 3 side chain; on linkers, the order of the positions; unused ones are H or OH. Peptide text beside a SMILES is read from it. * marks the point of attachment. C20 diacid = O=C(O)CCCCCCCCCCCCCCCCCCC(=O)*; C18 diacid = O=C(O)CCCCCCCCCCCCCCCCC(=O)*; γGlu = O=C(O)[C@H](CCC(=O)[*:2])N[*:1]; C14 diacid = O=C(O)CCCCCCCCCCCCC(=O)*; AEEA = NCCOCCOCC(=O)O
Experiment: Assay (IV) determination of solubility
Type: physicochemical
Description: Assay (IV)—Determination of Solubility
The mimylin peptide was dissolved in water at ˜500 nmol/ml and mixed 1:1 with a series of buffers (100 mM glycylglycine pH 3.0, 100 mM glycylglycine pH 4.0, 100 mM glycylglycine pH 5.0, 100 mM bistrispropane pH 6.0, 100 mM bistrispropane pH 6.5, 100 mM bistrispropane pH 7.0, 100 mM bistrispropane pH 7.5, 100 mM bistrispropane pH 8.0).

Structure (SMILES)	Solubility (pH 3.0)	Solubility (pH 4.0)	Solubility (pH 5.0)	Solubility (pH 6.0)	Solubility (pH 6.5)	Solubility (pH 7.0)	Solubility (pH 7.5)	Solubility (pH 8.0)	solubility at 18 h (pH 4.0)	solubility at 18 h (pH 5.0)
CC(C)C[C@H](NC(=O)[C@H](C)NC(=O)[C@H](C)NC(=O)[C@@H](NC(=O)[C@H](CO)NC(=O)[C@H](CC(C)C)NC(=O)[C@H](CCC(=O)O)NC(=O)[C@H](CO)NC(=O)[C@H](C)NC(=O)[C@H](C)NC(=O)[C@H](CCC(=O)O)NC(=O)CC[C@H](NC(=O)CCCCCCCCCCCCCCCCCCC(=O)O)C(=O)O)[C@@H](C)O)C(=O)NCC(=O)N[C@@H](CCCNC(=N)N)C(=O)N[C@@H](CC(C)C)C(=O)N[C@@H](CO)C(=O)N[C@@H](C)C(=O)N[C@@H](CCC(=O)O)C(=O)N[C@@H](CC(C)C)C(=O)N[C@@H](Cc1cnc[nH]1)C(=O)N[C@@H](CCC(=O)O)C(=O)N[C@@H](CC(C)C)C(=O)N[C@@H](C)C(=O)N[C@H](C(=O)N[C@@H](Cc1ccc(O)cc1)C(=O)N1CCC[C@H]1C(=O)N[C@@H](CCCNC(=N)N)C(=O)N[C@H](C(=O)N[C@@H](CCC(=O)O)C(=O)N[C@H](C(=O)NCC(=O)N[C@@H](CO)C(=O)NCC(=O)N[C@@H](CO)C(=O)N1CCC[C@H]1C(N)=O)[C@@H](C)O)[C@@H](C)O)[C@@H](C)O [compound 83, [N-terminal(C20 diacid-gGlu), −1E, 1A, 23Y, 30S, 31G]mimylin] ({C20 diacid-γGlu}-EAASELSTAALGRLSAELHELATYPRTETGSGSP-NH2)	≧200 μM	≧200 μM	≧200 μM	≧200 μM	≧200 μM	≧200 μM	≧200 μM	≧200 μM	–	–
CC(C)C[C@H](NC(=O)[C@H](CCC(=O)O)NC(=O)[C@H](Cc1cnc[nH]1)NC(=O)[C@H](CC(C)C)NC(=O)[C@H](CCC(=O)O)NC(=O)[C@H](C)NC(=O)[C@H](CO)NC(=O)[C@H](CC(C)C)NC(=O)[C@H](CCCNC(=N)N)NC(=O)CNC(=O)[C@H](CC(C)C)NC(=O)[C@@H](NC(=O)[C@H](C)NC(=O)[C@@H](NC(=O)[C@H](CO)NC(=O)[C@H](CC(C)C)NC(=O)[C@H](CCC(=O)O)NC(=O)[C@H](CO)NC(=O)[C@H](C)NC(=O)[C@H](CCC(=O)O)NC(=O)CCCCCCCCCCCCCCCCC(=O)O)[C@@H](C)O)C(C)C)C(=O)N[C@@H](C)C(=O)N[C@H](C(=O)N[C@@H](CC(C)C)C(=O)N1CCC[C@H]1C(=O)N[C@@H](CCCNC(=N)N)C(=O)N[C@H](C(=O)N[C@@H](CCC(=O)O)C(=O)N1CCC[C@H]1C(=O)NCC(=O)N1CCC[C@H]1C(=O)N[C@@H](CCC(=O)O)C(=O)N[C@@H](CO)C(=O)N1CCC[C@H]1C(N)=O)[C@@H](C)O)[C@@H](C)O [compound 32, [N-terminal(C18 diacid), 9V, 28P]mimylin] ({C18 diacid}-EASELSTAVLGRLSAELHELATLPRTEPGPESP-NH2)	≧200 μM	≧200 μM	≧200 μM	≧200 μM	≧200 μM	≧200 μM	≧200 μM	≧200 μM	–	–
CC(C)C[C@H](NC(=O)[C@H](CO)NC(=O)CNC(=O)[C@H](CO)NC(=O)CNC(=O)[C@@H](NC(=O)[C@H](CCC(=O)O)NC(=O)[C@@H](NC(=O)[C@H](CCCNC(=N)N)NC(=O)[C@@H]1CCCN1C(=O)[C@H](CC(C)C)NC(=O)[C@@H](NC(=O)[C@H](C)NC(=O)[C@H](CC(C)C)NC(=O)[C@H](CCC(=O)O)NC(=O)[C@H](Cc1cnc[nH]1)NC(=O)[C@H](CC(C)C)NC(=O)[C@H](CCC(=O)O)NC(=O)[C@H](C)NC(=O)[C@H](CO)NC(=O)[C@H](CC(C)C)NC(=O)[C@H](CCCNC(=N)N)NC(=O)CNC(=O)[C@H](CC(C)C)NC(=O)[C@H](C)NC(=O)[C@H](C)NC(=O)[C@@H](NC(=O)[C@H](CO)NC(=O)[C@H](CC(C)C)NC(=O)[C@H](CCC(=O)O)NC(=O)[C@H](CO)NC(=O)[C@H](C)NC(=O)CC[C@H](NC(=O)CCCCCCCCCCCCCCCCCCC(=O)O)C(=O)O)[C@@H](C)O)[C@@H](C)O)[C@@H](C)O)[C@@H](C)O)C(N)=O [compound 62, [N-terminal(C20 diacid-gGlu), des1, 30S, 31G, 33L]mimylin] ({C20 diacid-γGlu}-ASELSTAALGRLSAELHELATLPRTETGSGSL-NH2)	≧200 μM	≧200 μM	≧200 μM	≧200 μM	≧200 μM	≧200 μM	≧200 μM	≧200 μM	–	–
CC(C)C[C@H](NC(=O)[C@H](C)NC(=O)[C@H](C)NC(=O)[C@@H](NC(=O)[C@H](CO)NC(=O)[C@H](CC(C)C)NC(=O)[C@H](CCC(=O)O)NC(=O)[C@H](CO)NC(=O)[C@H](C)NC(=O)CC[C@H](NC(=O)CCCCCCCCCCCCC(=O)O)C(=O)O)[C@@H](C)O)C(=O)NCC(=O)N[C@@H](CCCNC(=N)N)C(=O)N[C@@H](CC(C)C)C(=O)N[C@@H](CO)C(=O)N[C@@H](C)C(=O)N[C@@H](CCC(=O)O)C(=O)N[C@@H](CC(C)C)C(=O)N[C@@H](Cc1cnc[nH]1)C(=O)N[C@@H](CCC(=O)O)C(=O)N[C@@H](CC(C)C)C(=O)N[C@@H](C)C(=O)N[C@H](C(=O)N[C@@H](CC(C)C)C(=O)N1CCC[C@H]1C(=O)N[C@@H](CCCNC(=N)N)C(=O)N[C@H](C(=O)N[C@@H](CCC(=O)O)C(=O)N[C@H](C(=O)NCC(=O)N1CCC[C@H]1C(=O)N[C@@H](CCC(=O)O)C(=O)N[C@@H](CO)C(=O)N1CCC[C@H]1C(N)=O)[C@@H](C)O)[C@@H](C)O)[C@@H](C)O [compound 19, [N-terminal(C14 diacid-gGlu), des1]mimylin] ({C14 diacid-γGlu}-ASELSTAALGRLSAELHELATLPRTETGPESP-NH2)	≧200 μM	≧200 μM	≧200 μM	≧200 μM	≧200 μM	≧200 μM	≧200 μM	≧200 μM	–	–
CC(C)C[C@H](NC(=O)[C@H](CCC(=O)O)NC(=O)[C@H](Cc1cnc[nH]1)NC(=O)[C@H](CC(C)C)NC(=O)[C@H](CCC(=O)O)NC(=O)[C@H](C)NC(=O)[C@H](CO)NC(=O)[C@H](CC(C)C)NC(=O)[C@H](CCCNC(=N)N)NC(=O)CNC(=O)[C@H](CC(C)C)NC(=O)[C@@H](NC(=O)[C@H](C)NC(=O)[C@@H](NC(=O)[C@H](CO)NC(=O)[C@H](CC(C)C)NC(=O)[C@H](CCC(=O)O)NC(=O)[C@H](CO)NC(=O)[C@H](C)NC(=O)[C@H](CCC(=O)O)NC(=O)CCCCCCCCCCCCCCCCC(=O)O)[C@@H](C)O)C(C)C)C(=O)N[C@@H](C)C(=O)N[C@H](C(=O)N[C@@H](CC(C)C)C(=O)N1CCC[C@H]1C(=O)N1CCC[C@H]1C(=O)N[C@H](C(=O)N[C@@H](CCC(=O)O)C(=O)N[C@H](C(=O)NCC(=O)N1CCC[C@H]1C(=O)N[C@@H](CCC(=O)O)C(=O)N[C@@H](CO)C(=O)N1CCC[C@H]1C(N)=O)[C@@H](C)O)[C@@H](C)O)[C@@H](C)O [compound 31, [N-terminal(C18 diacid), 9V, 25P]mimylin] ({C18 diacid}-EASELSTAVLGRLSAELHELATLPPTETGPESP-NH2)	≧200 μM	≧200 μM	≧200 μM	≧200 μM	≧200 μM	≧200 μM	≧200 μM	≧200 μM	–	–
CC(C)C[C@H](NC(=O)[C@H](C)NC(=O)[C@H](C)NC(=O)[C@@H](NC(=O)[C@H](CO)NC(=O)[C@H](CC(C)C)NC(=O)[C@H](CCC(=O)O)NC(=O)[C@H](CO)NC(=O)[C@H](C)NC(=O)COCCOCCNC(=O)COCCOCCNC(=O)CC[C@H](NC(=O)CCCCCCCCCCCCCCCCCCC(=O)O)C(=O)O)[C@@H](C)O)C(=O)NCC(=O)N[C@@H](CCCNC(=N)N)C(=O)N[C@@H](CC(C)C)C(=O)N[C@@H](CO)C(=O)N[C@@H](C)C(=O)N[C@@H](CCC(=O)O)C(=O)N[C@@H](CC(C)C)C(=O)N[C@@H](Cc1cnc[nH]1)C(=O)N[C@@H](CCC(=O)O)C(=O)N[C@@H](CC(C)C)C(=O)N[C@@H](C)C(=O)N[C@H](C(=O)N[C@@H](CC(C)C)C(=O)N1CCC[C@H]1C(=O)N[C@@H](CCCNC(=N)N)C(=O)N[C@H](C(=O)N[C@@H](CCC(=O)O)C(=O)N[C@H](C(=O)NCC(=O)N[C@@H](CO)C(=O)NCC(=O)N[C@@H](CO)C(=O)N1CCC[C@H]1C(N)=O)[C@@H](C)O)[C@@H](C)O)[C@@H](C)O [compound 42, [N-terminal(C20 diacid-gGlu-2xOEG), des1, 30S, 31G]mimylin] ({C20 diacid-γGlu-AEEA-AEEA}-ASELSTAALGRLSAELHELATLPRTETGSGSP-NH2)	≧200 μM	≧200 μM	≧200 μM	≧200 μM	≧200 μM	≧200 μM	≧200 μM	≧200 μM	–	–
CC[C@H](C)[C@H](NC(=O)[C@H](CCC(=O)O)NC(=O)[C@H](CO)NC(=O)[C@H](C)NC(=O)[C@H](CCC(=O)O)NC(=O)CCCCCCCCCCCCCCCCC(=O)O)C(=O)N[C@@H](CO)C(=O)N[C@H](C(=O)N[C@@H](C)C(=O)N[C@@H](C)C(=O)N[C@@H](CC(C)C)C(=O)NCC(=O)N[C@@H](CCCNC(=N)N)C(=O)N[C@@H](CC(C)C)C(=O)N[C@@H](CO)C(=O)N[C@@H](C)C(=O)N[C@@H](CCC(=O)O)C(=O)N[C@@H](CC(C)C)C(=O)N[C@@H](Cc1cnc[nH]1)C(=O)N[C@@H](CCC(=O)O)C(=O)N[C@@H](CC(C)C)C(=O)N[C@@H](C)C(=O)N[C@H](C(=O)N[C@@H](CC(C)C)C(=O)N1CCC[C@H]1C(=O)N[C@@H](CCCNC(=N)N)C(=O)N[C@H](C(=O)N[C@@H](CCC(=O)O)C(=O)N[C@H](C(=O)NCC(=O)N1CCC[C@H]1C(=O)N[C@@H](CCC(=O)O)C(=O)N[C@@H](CO)C(=O)N1CCC[C@H]1C(N)=O)[C@@H](C)O)[C@@H](C)O)[C@@H](C)O)[C@@H](C)O [Ex. #8, [N-terminal(C18 diacid), 5I]mimylin] ({C18 diacid}-EASEISTAALGRLSAELHELATLPRTETGPESP-NH2)	≧200 μM	–	–	≧200 μM	≧200 μM	≧200 μM	≧200 μM	≧200 μM	94 µM (≈ 351 µg/mL)	35 µM (≈ 131 µg/mL)
